For 15 compounds, melting point and IC50 results are on record in patent US9949995B2, “Compositions and methods of treating of bacterial infections with β-lactamase inhibitors” (priority 2015, dated 2018).

The target of one series is IMP-1 (Serratia marcescens, UniProt P52699). In words: IC50 assay, nitrocefin hydrolysis, IMP-1 (MBL). The series is classed as biochemical. The settings on record: nitrocefin 50 μM, 5 min pre-incubation at 25° C.; 10 mM HEPES pH 7.5, 200 mM NaCl, 50 uM Zn2SO4, 50 ug/ml BSA. The protocol:
(§1) IC50 assays were performed to determine compound ability to inhibit enzyme.

The target of the next series is NDM-1 (Klebsiella pneumoniae, UniProt C7C422). In words: IC50 assay, nitrocefin hydrolysis, NDM-1 (MBL). In kind it is biochemical. The settings on record: nitrocefin 50 μM, 5 min pre-incubation at 25° C.; 10 mM HEPES pH 7.5, 200 mM NaCl, 50 uM Zn2SO4, 50 ug/ml BSA. The protocol: as §1
NDM-1, sequence (C7C422 29-270, looked up): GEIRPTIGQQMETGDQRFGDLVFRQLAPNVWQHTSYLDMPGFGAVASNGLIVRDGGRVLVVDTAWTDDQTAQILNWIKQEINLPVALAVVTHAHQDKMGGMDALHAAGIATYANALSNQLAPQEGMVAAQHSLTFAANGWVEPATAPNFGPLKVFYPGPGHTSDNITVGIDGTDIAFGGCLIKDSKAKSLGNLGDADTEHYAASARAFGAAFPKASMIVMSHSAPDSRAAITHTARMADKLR
A further series addresses VIM-2 (Escherichia coli, UniProt Q5U7L7). In words: IC50 assay, nitrocefin hydrolysis, VIM-2 (MBL). In kind it is biochemical. As to conditions: nitrocefin 50 μM, 5 min pre-incubation at 25° C.; 10 mM HEPES pH 7.5, 200 mM NaCl, 50 uM Zn2SO4, 50 ug/ml BSA. As for the experimental part:
as §1

The next series addresses VIM-24 (Escherichia coli, UniProt Q5U7L7, R205L). Nature of the series: IC50 assay, nitrocefin hydrolysis, VIM-24 (MBL). The series is classed as biochemical. As for the experimental part:
as §1

The next series has as its target KPC-2 (Klebsiella pneumoniae, UniProt Q9F663). Nature of the series: IC50 assay, nitrocefin hydrolysis, KPC-2 (SBL). In kind it is biochemical. As to conditions: nitrocefin 50 μM, 5 min pre-incubation at 25° C.; 10 mM phosphate-buffered saline, pH 7.4. As for the experimental part:
as §1

For the next series, the target named is ADC-7 (Acinetobacter baumannii, UniProt Q6DRA1). Nature of the series: IC50 assay, nitrocefin hydrolysis, ADC-7 (SBL). The series is classed as biochemical. The settings on record: nitrocefin 50 μM, 5 min pre-incubation at 25° C.; 10 mM phosphate-buffered saline, pH 7.4. As for the experimental part: as §1
The target of a further series is PDC-3 (Pseudomonas aeruginosa, UniProt P24735, T105A). In words: IC50 assay, nitrocefin hydrolysis, PDC-3 (SBL). In kind it is biochemical. The protocol: as §1
PDC-3, sequence (P24735 27-397 T105A): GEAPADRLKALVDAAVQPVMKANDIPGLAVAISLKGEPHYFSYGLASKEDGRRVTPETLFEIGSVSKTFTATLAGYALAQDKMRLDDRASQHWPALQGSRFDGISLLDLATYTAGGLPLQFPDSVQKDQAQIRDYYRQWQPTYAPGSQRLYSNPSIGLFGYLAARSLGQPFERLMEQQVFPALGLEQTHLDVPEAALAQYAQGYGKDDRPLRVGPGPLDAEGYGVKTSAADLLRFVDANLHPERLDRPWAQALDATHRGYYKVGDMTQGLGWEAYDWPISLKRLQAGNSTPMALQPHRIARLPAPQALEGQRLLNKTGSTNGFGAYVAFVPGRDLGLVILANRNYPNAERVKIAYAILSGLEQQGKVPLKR
Another series concerns the target OXA-23 (Acinetobacter baumannii, UniProt Q9L4P2). In words: IC50 assay, nitrocefin hydrolysis, OXA-23 (SBL). The settings on record: nitrocefin 50 μM, 5 min pre-incubation at 25° C.; 50 mM Na Phosphate buffer, pH 7.2, 20 mM Na bicarbonate. The series is classed as biochemical. As for the experimental part:
as §1

IMP-1, sequence (P52699 19-246, looked up): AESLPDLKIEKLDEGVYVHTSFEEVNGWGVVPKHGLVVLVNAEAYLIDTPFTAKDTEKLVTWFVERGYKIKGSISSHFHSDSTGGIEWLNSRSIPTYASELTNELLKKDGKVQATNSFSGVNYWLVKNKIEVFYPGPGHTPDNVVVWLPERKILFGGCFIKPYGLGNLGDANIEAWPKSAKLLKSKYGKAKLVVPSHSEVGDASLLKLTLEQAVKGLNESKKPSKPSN
KPC-2, sequence (Q9F663 25-293, looked up): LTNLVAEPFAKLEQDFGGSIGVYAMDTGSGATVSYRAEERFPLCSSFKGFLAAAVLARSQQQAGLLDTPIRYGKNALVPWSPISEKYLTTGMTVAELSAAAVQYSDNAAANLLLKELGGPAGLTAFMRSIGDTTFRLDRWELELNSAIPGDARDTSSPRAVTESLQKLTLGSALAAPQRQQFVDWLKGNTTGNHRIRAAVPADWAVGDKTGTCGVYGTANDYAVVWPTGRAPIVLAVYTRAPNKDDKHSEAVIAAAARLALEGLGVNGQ
OXA-23, sequence (Q9L4P2 18-273): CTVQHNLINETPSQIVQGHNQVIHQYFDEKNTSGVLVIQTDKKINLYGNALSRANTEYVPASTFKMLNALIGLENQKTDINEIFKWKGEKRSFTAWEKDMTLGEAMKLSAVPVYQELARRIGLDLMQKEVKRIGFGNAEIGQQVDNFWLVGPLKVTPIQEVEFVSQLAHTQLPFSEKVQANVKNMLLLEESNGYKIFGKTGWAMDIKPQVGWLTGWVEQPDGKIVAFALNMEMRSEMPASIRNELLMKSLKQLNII

Usually melting point stands for the temperature of the solid-liquid transition. As to `O=C(O)c1cn([C@@H](Cc2ccccc2)B(O)O)nn1`, the melting point was 120 to 122 °C (dec.).

Consider `OB(O)[C@H](Cc1ccccc1)n1cc(-c2ccccc2)nn1`, for which the melting point is 151 to 153 °C (dec.).

For `OB(O)[C@H](Cc1ccccc1)n1cc(-c2ccsc2)nn1`, the melting point is 141 to 143 °C (dec.).

Consider `OB(O)[C@H](Cc1ccccc1)n1cc(COc2ccccc2)nn1`, for which the melting point was 113 to 115 °C (dec.).

Regarding `CCOC(=O)c1cn([C@@H](Cc2cccc(C(=O)O)c2)B(O)O)nn1`, the melting point is 108 to 110 °C (dec.).

In the case of `O=C(O)c1cccc(C[C@@H](B(O)O)n2cc(-c3ccccc3)nn2)c1`, the melting point was 88 to 90 °C (dec.).

Take `O=C(O)c1cccc(C[C@@H](B(O)O)n2cc(-c3ccsc3)nn2)c1`: the melting point is 185 to 187 °C (dec.).

Regarding `CCOC(=O)c1cn(CB(O)O)nn1`, the melting point is 123 to 125 °C (dec.).

As for `OB(O)Cn1cc(-c2ccccc2)nn1`, the melting point is 122 to 124 °C (dec.).

Consider `OB(O)Cn1cc(-c2ccsc2)nn1`, for which the melting point is 170 to 172 °C (dec.).

`OB(O)Cn1cc(COc2ccccc2)nn1`: the melting point is 128 to 131 °C (dec.).

By IC50 is commonly meant the midpoint of a concentration-inhibition curve. A high value points to weaker potency in that assay. For the compound `Cc1ccc(S(=O)(=O)NCc2cn(CB(O)O)nn2)cc1` [Cmp 1a], the IC50 at IMP-1 was over 100 µM; at NDM-1 it was over 100 µM; at VIM-2, over 100 µM; against VIM-24, over 100 µM; against KPC-2, 1.3 ± 0.1 µM; against ADC-7, 24 ± 3 µM. Further, the figures for the IC50 against PDC-3 and on OXA-23 were 9 ± 1 µM and over 100 µM, respectively.

Take `O=C(NCc1cn(CB(O)O)nn1)c1ccccc1` [Cmp 1c]: the IC50 was over 100 µM on IMP-1; over 100 µM against NDM-1; 55 ± 5 µM against VIM-2; over 100 µM against VIM-24; 10.8 ± 1.5 µM against KPC-2; 23 ± 3 µM on ADC-7. For the same compound, the IC50 on PDC-3 is 26 ± 3 µM; on OXA-23, over 100 µM.

Consider `O=C(Cc1ccccc1)NCc1cn(CB(O)O)nn1` [Cmp 1d], for which the IC50 on IMP-1 is over 100 µM; at NDM-1, over 100 µM; on VIM-2, 92 ± 9 µM; at VIM-24, over 100 µM; on KPC-2, 12 ± 1 µM; on ADC-7, 39 ± 4 µM. The values for the IC50 against PDC-3 and at OXA-23 were 23 ± 3 µM and over 100 µM, respectively.

In the case of `O=C(NCc1cn(CB(O)O)nn1)Nc1ccccc1` [Cmp 1e], the IC50 is over 100 µM at IMP-1; over 100 µM on NDM-1; 39 ± 4 µM against VIM-2; over 100 µM on VIM-24; 5.2 ± 0.2 µM against KPC-2; 14 ± 2 µM at ADC-7. Besides, the IC50 against PDC-3 is 10 ± 1 µM; on OXA-23 it was over 100 µM.
